The record followed here is PMC11855827, “High-Throughput Screening of Five Compound Libraries for Anthelmintic Activity and Toxicity Leads to the Discovery of Two Flavonoid Compounds” (International Journal of Molecular Sciences, 2025).

Structures are written as SMILES. Where two headings read alike, the source gives them in different places.

The subject of the test is C. elegans. Nature of the test: microbe, parasite or virus in culture. As to conditions: Caenorhabditis elegans.
[1] abbreviates: 0 h, read-out: Percentage of motility inhibition 0 h, Table S2, C. elegans SS assay, 110 μM, 0 h, averages of 4 data points.
[2] abbreviates: 24 h, read-out: Percentage of motility inhibition 24 h, Table S2, C. elegans SS assay, 110 μM, 24 h, averages of 4 data points.
The mark [3] stands for this setting: 0 h, read-out: Percentage of motility inhibition 0 h.
Setting [4] is: 24 h, read-out: Percentage of motility inhibition 24 h.

A word on the inhibition: it is the percentage by which the read-out fell short of the control. As for `CC1(C)CC[C@]2(C(=O)O)CC[C@]3(C)C(=CC[C@@H]4[C@@]5(C)CC[C@H](O)[C@@](C)(C=O)[C@@H]5CC[C@]43C)[C@@H]2C1` [Gypsogenin], the inhibition at 110 µM came to 10% under setting [1] and 10% under setting [2].

As to `CN1CCCN=C1/C=C/c1cccs1` [Pyrantel pamoate, reference compound], the inhibition at 110 µM reads like this: (0 h, read-out: Inhibition (%) 110 μM (0 h), C. elegans L4 motility, 110 μM, 0 h, mean ± SD of four experiments) 94%; (24 h, read-out: Inhibition (%) 110 μM (24 h), C. elegans L4 motility, 110 μM, 24 h, mean ± SD of four experiments) 18 ± 18%.

In the case of `CC[C@@H]1CN2CC[C@]3(C(=O)Nc4ccccc43)[C@@H]2C[C@@H]1/C(=C\OC)C(=O)OC` [Corynoxine B], the inhibition at 110 µM is, setting by setting: under setting [1], 5%; under setting [2], 20%.

Regarding `Cc1cc(=O)oc2cc(O)ccc12` [4-Methylumbelliferone], the inhibition at 110 µM was found to be 4% under setting [1] and 3% under setting [2].

With `CC1(C)CCC[C@](C)([C@H]2CC[C@]3(C)[C@@H]2[C@H](O)C[C@@H]2[C@@]4(C)CC[C@H](O)C(C)(C)[C@@H]4CC[C@]23C)O1` [Panaxadiol], the inhibition at 110 µM reads like this: under setting [1], 39%; under setting [2], 36%.

For `O=c1cc(-c2ccc(O)c(O)c2)oc2cc(O)c([C@@H]3O[C@H](CO)[C@@H](O)[C@H](O)[C@H]3O)c(O)c12` [Isoorientin], the inhibition at 110 µM amounted to 6% under setting [1] and 22% under setting [2].

Turning to `OC[C@H]1NC[C@H](O)[C@@H](O)[C@@H]1O` [1‐Deoxynojirimycin], the inhibition at 110 µM was 0% under setting [1] and 1% under setting [2].

For the compound `N[C@@H](Cc1c[nH]c2ccc(O)cc12)C(=O)O` [5-Hydroxytryptophan], the inhibition at 110 µM runs as follows: under setting [1], 28%; under setting [2], 12%.

Consider `CCCCCCCCCCCCCCCCCC(=O)O` [Stearic acid], for which the inhibition at 110 µM runs as follows: under setting [1], 0%; under setting [2], 1%.

For the compound `CC(C)=CCc1c(O)ccc(C(=O)/C=C/c2ccc(O)cc2)c1O` [Isobavachalcone], the inhibition at 110 µM by setting is: under setting [1], 6%; under setting [2], 15%.

On to `Nc1ccn([C@H]2CC[C@@H](CO)O2)c(=O)n1` [Zalcitabine], for which the inhibition at 110 µM by setting is: under setting [1], 19%; under setting [2], 20%.

In the case of `O=c1[nH]c(=O)n([C@H]2C[C@H](O)[C@@H](CO)O2)cc1/C=C/Br` [Brivudine], the inhibition at 110 µM under setting [3] was 6% and the inhibition at 110 µM under setting [4] was determined as 14%.

Consider `Cc1cn([C@H]2C=C[C@@H](CO)O2)c(=O)[nH]c1=O` [Stavudine], for which the inhibition at 110 µM reads like this: under setting [1], 25%; under setting [2], 3%.

Turning to `CC[C@H]1OC(=O)[C@H](C)[C@@H](O[C@H]2C[C@@](C)(OC)[C@@H](O)[C@H](C)O2)[C@H](C)[C@@H](O[C@@H]2O[C@H](C)C[C@H](N(C)C)[C@H]2O)[C@](C)(O)C[C@@H](C)CN(C)[C@H](C)[C@@H](O)[C@]1(C)O` [Azithromycin], the inhibition at 110 µM reads like this: under setting [1], 23%; under setting [2], 37%.

On to `CNC(=O)Oc1ccccc1OC(C)C` [Propoxur], for which the inhibition at 110 µM was determined as 16% under setting [1] and 9% under setting [2].

With `CC1(C)CC[C@]2(C(=O)O)CC[C@]3(C)C(=CC[C@@H]4[C@@]5(C)C[C@@H](O)[C@H](O)[C@@](C)(CO)[C@@H]5[C@H](O)C[C@]43C)[C@@H]2C1` [Terminolic acid], the inhibition at 110 µM is 26% under setting [1] and 10% under setting [2].

For `COc1c(O)cc(O)c2c(=O)cc(-c3ccccc3)oc12` [Wogonin], the inhibition at 110 µM is, setting by setting: under setting [3], 23%; under setting [4], 5%.

On to `COC[C@H]1C[C@@H](c2nc(-c3ccc4c(c3)COc3cc5c(ccc6nc([C@@H]7CC[C@H](C)N7C(=O)[C@@H](NC(=O)OC)C(C)C)[nH]c65)cc3-4)c[nH]2)N(C(=O)[C@H](NC(=O)OC)c2ccccc2)C1` [Velpatasvir], for which the inhibition at 110 µM by setting is: under setting [1], 19%; under setting [2], 1%.

Turning to `C=CC(C)(O)CCC=C(C)CCC=C(C)C` (mixture of isomers) [Nerolidol], the inhibition at 110 µM by setting is: under setting [1], 7%; under setting [2], 7%.

With `CC(C)=C/C=C1\O[C@@H]2CC(C)=CC(=O)[C@@H]2[C@]1(C)O` [Bisabolangelone], the inhibition at 110 µM turned out to be 18% under setting [1] and 13% under setting [2].

Regarding `COc1cc2c(cc1OC)[C@@H](Cc1ccc(Oc3cc(C[C@@H]4c5cc(OC)c(OC)cc5CCN4C)ccc3O)cc1)N(C)CC2` [Dauricine], the inhibition at 110 µM by setting is: under setting [3], 2%; under setting [4], 9%.

On to `COc1ccc(-c2oc3cc(O)cc(O)c3c(=O)c2O)cc1` [Kaempferide], for which the inhibition at 110 µM by setting is: under setting [1], 49%; under setting [2], 0%.

As for `O=c1c(O[C@@H]2O[C@H](CO)[C@@H](O)[C@H](O)[C@H]2O)c(-c2ccc(O)c(O)c2)oc2cc(O)cc(O)c12` [Isoquercitrin], the inhibition at 110 µM runs as follows: under setting [1], 31%; under setting [2], 2%.

As to `C=C[C@]12CN(C)[C@@H]3[C@H]4CO[C@H](C[C@H]41)[C@]1(C(=O)Nc4ccccc41)[C@@H]32` [Gelsemi ne], the inhibition at 110 µM is, setting by setting: under setting [1], 0%; under setting [2], 0%.

As to `C[C@@H]1[C@H]2c3cc4c(cc3O[C@@]35OCOC3=CC(=O)[C@H](C[C@H]1C)[C@@H]25)OCO4` [Sauchinone], the inhibition at 110 µM reads like this: under setting [1], 18%; under setting [2], 25%.

Consider `C[C@@H]1O[C@@H](O[C@H]2[C@H](O[C@H]3CC[C@@]4(C)[C@@H](CC[C@]5(C)[C@@H]4CC=C4[C@@H]6CC(C)(C)CC[C@]6(C(=O)O)CC[C@]45C)[C@]3(C)CO)OC[C@H](O)[C@@H]2O)[C@H](O)[C@H](O)[C@H]1O` [alpha-Hederin], for which the inhibition at 110 µM under setting [3] stood at 6% and the inhibition at 110 µM under setting [4] is 0%.

Turning to `CC(C)c1ccc2c(c1O)CC[C@H]1C3=C(CC[C@]21C)C(=O)OC3` [Triptophenolide], the inhibition at 110 µM reads like this: under setting [1], 11%; under setting [2], 40%.

As for `COc1ccc(-c2cc(=O)c3c(O)c(OC)c(OC)cc3o2)cc1O` [Eupatorin], the inhibition at 110 µM reads like this: under setting [1], 7%; under setting [2], 26%.

For the compound `CC(=O)O[C@@H]1C[C@H](O)[C@@]23CO[C@@H](O)[C@]1(C)[C@@H]2C[C@@H](O)[C@]1(C)[C@@H]3C(=O)[C@H](OC(C)=O)[C@@]2(C)[C@H](c3ccoc3)C[C@H]3O[C@]321` [Toosendanin], the inhibition at 110 µM came to 0% under setting [1] and 7% under setting [2].

Consider `CC1=CCC(C(C)C)=CC1` [γ-Terpinene], for which the inhibition at 110 µM worked out at 6% under setting [1] and 31% under setting [2].

As for `Cc1ncc(CO)c(CO)c1O` [Pyridoxine], the inhibition at 110 µM is, setting by setting: under setting [1], 8%; under setting [2], 0%.

On to `C=C1CC[C@H]2C(=C)CC[C@H]3C(=C)C(=O)O[C@@H]3[C@@H]12` [Dehydrocostus Lactone], for which the inhibition at 110 µM under setting [1] is 0% and the inhibition at 110 µM under setting [2] is 24%.

Regarding `N#Cc1ccc(C(c2ccc(C#N)cc2)n2cncn2)cc1` [Letrozole], the inhibition at 110 µM turned out to be 0% under setting [1] and 0% under setting [2].

`O=C(O)[C@H]1O[C@@H](Oc2cc3oc(-c4ccc(O)cc4)cc(=O)c3c(O)c2O)[C@H](O)[C@@H](O)[C@@H]1O` [Scutellarin]: the inhibition at 110 µM was found to be 31% under setting [1] and 1% under setting [2].

`O=C1OCCN1/N=C/c1ccc([N+](=O)[O-])o1` [Furazolidone]: the inhibition at 110 µM reads like this: under setting [1], 21%; under setting [2], 7%.

Regarding `CC=CC(=O)N(CC)c1ccccc1C` (mixture of isomers) [Crotamiton], the inhibition at 110 µM is, setting by setting: under setting [1], 23%; under setting [2], 24%.

Turning to `C[C@H]1O[C@@H](O[C@H]2CC[C@@]3(C)[C@@H](CC[C@]4(C)[C@@H]3C=C[C@]35OC[C@@]6(CCC(C)(C)C[C@H]63)[C@@H](O)C[C@]54C)[C@]2(C)CO)[C@H](O)[C@@H](O[C@@H]2O[C@H](CO)[C@@H](O)[C@H](O)[C@H]2O)[C@H]1O` [Saikosaponin A], the inhibition at 110 µM stood at 2% under setting [1] and 4% under setting [2].

Regarding `N[C@@H]1CON=C1O` [D‐Cycloserine], the inhibition at 110 µM amounted to 12% under setting [1] and 13% under setting [2].

For the compound `CCN1C[C@]2(COC)[C@H](O)C[C@H](OC)[C@]34C1[C@H]([C@H](OC)[C@H]23)[C@@]1(OC(C)=O)C[C@H](OC)[C@@]2(O)C[C@@H]4[C@@H]1[C@H]2OC(=O)c1ccc(OC)cc1` [Yunaconitine], the inhibition at 110 µM is, setting by setting: under setting [1], 24%; under setting [2], 5%.

`COc1cc([C@@H]2c3cc4c(cc3[C@@H](O[C@@H]3O[C@@H]5CO[C@@H](C)O[C@H]5[C@H](O)[C@H]3O)[C@H]3COC(=O)[C@H]23)OCO4)cc(OC)c1O` [Etoposide]: the inhibition at 110 µM under setting [1] was 0% and the inhibition at 110 µM under setting [2] was found to be 4%.

`NC(=O)c1ccccc1O` [Salicylamide]: the inhibition at 110 µM amounted to 2% under setting [1] and 0% under setting [2].

For the compound `O=c1c(O[C@@H]2O[C@H](CO)[C@H](O)[C@H](O)[C@H]2O)c(-c2ccc(O)c(O)c2)oc2cc(O)cc(O)c12` [Hyperoside], the inhibition at 110 µM under setting [1] came out at 14% and the inhibition at 110 µM under setting [2] is 11%.

As for `Nc1ccc(S(=O)(=O)Nc2ccnn2-c2ccccc2)cc1` [Sulfaphenazole], the inhibition at 110 µM came out at 0% under setting [1] and 3% under setting [2].

As to `CCCCC1C(=O)N(c2ccccc2)N(c2ccc(O)cc2)C1=O` (centres unmarked) [Oxyphenbutazone], the inhibition at 110 µM is 0% under setting [1] and 0% under setting [2].

For `CC(C)(C)CC(C)(C)c1ccc(O)c(Cc2ccc(Cl)cc2Cl)c1` [Clofoctol], the inhibition at 110 µM runs as follows: under setting [1], 37%; under setting [2], 44%.

In the case of `CC(=O)c1ccc[nH]1` [2‐Acetylpyrrole], the inhibition at 110 µM under setting [1] was 26% and the inhibition at 110 µM under setting [2] stood at 18%.
